This is an account of results in US5723114A, “Penetration enhancing compositions and methods of their use” (Cellegy Pharmaceuticals Inc., priority 1996, dated 1998).

The subject of series [1] is skin barrier (flanks of hairless mice). Description: TEWL topical studies: barrier recovery after acetone or tape stripping with topical proton-pump inhibitors. Format: in vivo. The settings on record: DCCD-treated skin immersed in an acidic buffer. The procedure:
Proton-pump inhibitors: N,N'-dicyclohexylcarbodiimide (DCCD); 1-10 mM); N-ethyl maleimide (NEM; 1 mM); 7-chloro-4-nitrobenz-2-oxa-1,3-diazole (NBD Cl; 1 mM) and bafilomycin A1 (10 μM) were prepared in vehicle (i.e., 70% propylene glycol, 30% ethanol). Flanks of hairless mice were pre-treated for 30 minutes to 1 hour with drug or vehicle alone before breaking the barrier with acetone. TEWL readings were taken at various time points as described above, followed by additional treatments with drug or vehicle. The DCCD-override study included immersion of flanks in HEPES buffer at pH 5.5 or 7.4 after the pre-treatment with either drug or vehicle and after breaking the barrier with either acetone or by tape stripping.
Test results are shown in FIG. 7 (NEM, NBD-chloride, BAF).

Series [2] can be described thus: Percutaneous lidocaine delivery (scintillation counting of plasma and body). On the set-up: species or system hairless mouse. The settings on record: mouse, in vivo. Here is the method: (§1) A female hairless mouse, aged 8 weeks, was treated with oleic acid. After oleic acid treatment, epicholesterol, which substitutes for cholesterol, or transvaccenic acid or stearyl amine, both of which substitute for free fatty acid, was applied to the animal.
(§2) First, TEWL of the left (LHS) and right (RHS) dorsal sides was measured. Then, the animal was anesthetized by 0.25 ml chloral hydrate (CH) IP injection. At t=0, an aliquot of 30 μl oleic acid solution (5% in propylene glycol/ethanol 7:3 (v/v)) was applied directly to both sides of the animal (~1.5×3 cm) using a Hamilton syringe. Two hours after oleic acid treatment, the TEWL rates of both sides were measured, and the RHS was treated with 30 μl of epicholesterol alone and with transvaccenic acid or stearylamine (1.5% in propylene glycol/ethanol 7:3 (v/v)). TEWL was measured thereafter every 2 or 3 hours.
(§3) The mice were kept under anesthesia until the harvest of tissue samples and then sacrificed. At time zero, the tested drug delivery compound listed in Tables 2, 3 and 4 below was applied to the whole treated flank of each mouse. After four hours TEWL was measured again and two drug formulations,one containing lidocaine in a vehicle of a mixture of propylene glycol and ethanol and the other containing Leuteinizing Hormone Releasing Hormone (LHRH) in a vehicle of 60% ethanol, 20% propylene glycol and 20% water. Residual formulation was removed from the skin surface with cotton balls three times and the cotton balls were put into vial #1. Five tape-strippings were conducted at the treated skin sites, and each tape was put into an individual vial numbered 2-6. At the same time, blood was drawn and stored under refrigeration. Urine was collected from the mice during the two hour drug application period and placed into vial #8.
After an additional two hours, the treated skin was cut off, the subcutaneous fat was removed, and the whole skin was placed into vial #7 to which 1 ml of tissue solubilizer was added, and the mixture was allowed to digest overnight at 55° C. The corpse was digested in 100 ml of saponification mix at 55° C. overnight.
For analysis, 10 ml of Scintisafe (30% ) Scintillation media (Fisher Scientific, Fairlawn, N.J.) was added to vials 1-6, and 8. The blood samples were centrifuged, and an aliquot of 100-200 μl was placed into vial #9 and 10 ml of Scintisafe (30%) was added. Similar aliquots of the corpse digest were placed into vials #10 and #11. To vials #9, 10, and 11, 100 μl of 30% hydrogen peroxide was added to decolorize the contents for about two hours. Then […] of Scintisafe (30%) and 150 μl of acetic acid were added and the mixture was let stand overnight. All vials were subjected to scintillation counting as described above. The parameters for the vehicle are as follows: TEWL 266±22 (T=4 hours); plasma concentration 0.31±0.03%; total body concentration 13.13±0.83(% dose/ml plasma); N=14.

In series [3] the test system is skin barrier (stratum corneum, treated flank of hairless mouse). The series is described as follows: TEWL (water permeability) after oleic acid treatment and application of drug delivery compound. The format is in vivo. The settings on record: for TEWL (T = 4 hours): vehicle 266±22; for water permeability: words. The procedure:
as §1
TEWL (trans-epidermal water loss) was measured before and after treatment at convenient time intervals when the animal was alert. An Evaperimeter (ServoMed) was used.
as §2, §3

Where [4] appears, read: Table 2/Table 3, no hourly application, TRIS 50 mM, HEPES 20 mM.

Where a name gives a salt, the structure may show the parent alone.

`C(=NC1CCCCC1)=NC1CCCCC1` [DCCD, N,N'-dicyclohexylcarbodiimide]: the “barrier recovery, override study” value in series [1] was “normalized (corrected) the rate of barrier recovery”.
Regarding `O=S(=O)(O)CCN1CCN(CCO)CC1` [HEPES, (N-[2-Hydroxyethyl]piperazine-N'-[2-ethanesulfonic acid])], the figures for the lidocaine delivery entry in series [2] (pH 5.4), in series [2] (pH 5.5) and in series [2] (pH 7.4) were “approached statistical significance (p=0.05-0.10)”, “significant increases” and “only increased water permeability was significant”, respectively. Further, the “TEWL (T = 4 hours)” value in series [3] (Table 2/Table 3, hourly application, HEPES 20 mM, listed as HEPES (pH 5.5)) turned out to be 560 ± 125; in series [3] (Table 2/Table 3, hourly application, HEPES 20 mM, listed as HEPES (pH 7.4)), 460 ± 24; in series [3] (setting [4]) it was 360 ± 18. Besides, the water permeability entry in series [3] (alone, single application, pH 5.4) was “approached statistical significance (p=0.05-0.10)”; in series [3] (hourly to maintain pH 5.5), “significant increases”; in series [3] (hourly to maintain pH 7.4), “increased water permeability was significant”.
For `NC(CO)(CO)CO` [TRIS, Tris(hydroxymethyl) aminomethyl maleate], the lidocaine delivery entry in series [2] (pH 5.5) was “very significantly (p≤0.001) increased”. The “TEWL (T = 4 hours)” value in series [3] (setting [4]) was 583 ± 109. For the same molecule, in series [3] (alone, pH 5.5), the water permeability result is reported as “significantly increased”.
Consider `CC(C)CCC[C@@H](C)[C@H]1CC[C@H]2[C@@H]3CC=C4C[C@H](O)CC[C@]4(C)[C@H]3CC[C@]12C` [epicholesterol], for which, in series [2], the “Plasma Conc. (lidocaine)” value worked out at 0.24 ± 0.05 % dose/ml plasma, the “Total Body Conc. (lidocaine)” value is reported as 11.40 ± 1.98% and the lidocaine delivery result is reported as “significantly increased”. The “TEWL (T = 4 hours)” value in series [3] (Table 4, synthetic lipid analogs in propylene glycol/ethanol) amounted to 397 ± 55.
